# Assay results from publication PMC11054638, “Transport of Non-Steroidal Anti-Inflammatory Drugs across an Oral Mucosa Epithelium In Vitro Model” (Pharmaceutics, 2024).
# Where two headings read alike, the source gives them in different places.
# How the values were obtained:
# [1] = tested on: JAK1, TRAF2 and RELA mRNA in TR146 cells; assay: qPCR of JAK1, TRAF2 and RELA after inflammation study; assay type: cell-based, human; conditions: 48 h
# Procedure: ® were seeded with cells as described above. […] Prior to treating cells with prepared DMEM solutions, TEER was measured in cultivation media DMEM supplemented with 1% Penicillin/Streptomycin and 10% Fetal Calf Serum. Subsequently, cell layers and blanks were washed with DMEM (without supplements) twice on the apical and basolateral compartment, followed by TEER measurements in DMEM. Media of cells were replaced with previously prepared DMEM solutions. Control media was applied on the blanks. After 48 h treatment at 37 °C, 5% CO2 and 95% humidity TEER was measured. […] Media were immediately collected and measured for the RFU content using the EnSpire as described above. Afterwards, media were stored at -20 °C until further usage. […] For qPCR, samples were analysed as triplicates using the LightCycler480 II (Roche) with the program described in Lin et al. with primers for 18SrRNA (5'-3' forward: [NT], 5'-3' reverse: [NT], Janus Kinase 1 transcript variant a (JAK1tva) (5'-3' forward: [NT], 5'-3' reverse: [NT], JAK1tvb (5'-3' forward: [NT], 5'-3' reverse: [NT], JAK1tvc (5'-3' forward: [NT], 5'-3' reverse: [NT] Receptor Associated Factor 2 (TRAF2) tvb (5'-3' forward: [NT], 5'-3' reverse: […]2tvc (5'-3' forward: [NT], 5'-3' reverse: [NT] and nuclear factor κB (NF-κB) RelA (forward 5'-3': [NT], reverse 5'-3': […]
# [2] = tested on: TR146 cell layers
smiles,measurement,setting,value
CC(C)Cc1ccc(C(C)C(=O)O)cc1 (centres unmarked) [ibuprofen],RELA mRNA expression,"[1]; 100 µM ibuprofen with inflammatory cytokines, p < 0.05",inhibit the increase in RELA
same,JAK1 and TRAF2 mRNA expression,"[1]; cytokines 100 ng/mL each, ibuprofen 100 µM added during inflammation",did not block the upregulation
same,regulation of permeability with or without probenecid,[2]; cells treated with cytokines,no distinct regulation
same,higher permeability by addition of probenecid,[2]; cells treated with ibuprofen previously,52.64%
same,higher permeability by addition of probenecid,[2]; control group,42.46%
